For 78 compounds, Ki results are on record in US8329675B2, “Inhibitors of fatty acid amide hydrolase” (Infinity Pharmaceuticals, Inc., priority 2006, dated 2012).

Each structure is given as a SMILES string. A value given as a limit tells only on which side of the number the result lay.

The first experiment concerns the target T1, human FAAH (Homo sapiens, UniProt O00519).
T1 construct: host or cells: COS-7 cells, transient transfection; 13,000 g membrane fraction solubilised in 1% Triton X-100
T1 sequence (O00519 1-579): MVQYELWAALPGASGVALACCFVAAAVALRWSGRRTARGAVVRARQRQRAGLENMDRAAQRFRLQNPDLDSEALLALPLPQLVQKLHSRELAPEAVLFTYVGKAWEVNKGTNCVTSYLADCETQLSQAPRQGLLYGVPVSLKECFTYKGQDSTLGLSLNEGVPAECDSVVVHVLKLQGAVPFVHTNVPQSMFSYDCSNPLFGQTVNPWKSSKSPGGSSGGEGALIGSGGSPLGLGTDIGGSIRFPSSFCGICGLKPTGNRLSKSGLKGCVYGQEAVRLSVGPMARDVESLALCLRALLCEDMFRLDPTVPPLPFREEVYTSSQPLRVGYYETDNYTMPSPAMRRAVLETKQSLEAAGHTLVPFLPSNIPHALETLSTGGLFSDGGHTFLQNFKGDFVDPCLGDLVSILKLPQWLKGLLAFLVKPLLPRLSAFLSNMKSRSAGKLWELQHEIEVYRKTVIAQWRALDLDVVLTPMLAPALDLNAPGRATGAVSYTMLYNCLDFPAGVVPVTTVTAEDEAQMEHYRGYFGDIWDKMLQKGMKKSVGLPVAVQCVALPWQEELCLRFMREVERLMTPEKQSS
The experiment is described as follows: Human FAAH biochemical inhibition assay (AMC arachidonoyl amide fluorescence).
Settings: not given
As for the experimental part: The resulting solution is added into one dish of 30-40% confluent COS-7 cells in a drop-wise manner. The COS-7 cell dish is subsequently incubated for 48 hours. The cells are then harvested.
Harvest procedure: Media was aspirated from the dishes and the cells rinsed with 10 mL PBS. The PBS was removed and 3 mLs of PBS added to the dish. The dish was scraped to resuspend the cells, and the subsequent cell suspension collected into a 15 ml conical tube. The cells were pelleted by centrifugation at 1200 rpm for 5 minutes in a bench top centrifuge. PBS was removed and the cell pellet snap frozen in liquid nitrogen, store at −80 C.
The pellets were dounce homogenized and then sonicated to produce cell extract. The cell extract was subsequently centrifuged at 1000 g to remove cellular debris. The pellet was discarded and the supernatant centrifuged at 13,000 g for 20 minutes. The pellet contained membrane bound FAAH. The supernatant was discarded and the pellet resolubilized.
(2) Re-solubilization: The fraction of interest, (13,000 g, membrane fraction) was re-suspended in re-suspension buffer (20 mM Hepes pH 7.8, 10% v/v Glycerol, 1 mM EDTA, 1% Triton X-100) (2.3 mL re-suspension and the sample incubated on ice for 1 hour and then centrifuged to at 13,000 g remove any particulate matter. The supernatant containing solubilized human FAAH was aliquoted and snap frozen in liquid nitrogen and stored at −80° C. until use.
FAAH reaction buffer: 50 mM Hepes (pH 7.5), 1 mM EDTA, 0.2% Triton X-100.
Human FAAH assay; Experimental Protocol: A 0.1 mg/mL Human FAAH solution is made up in FAAH reaction buffer, and 24 ul pipetted into a 384 well plate. To this is added 1 uL of a 3 fold serially diluted inhibitor from a DMSO stock solution. The FAAH solution and inhibitor are incubated for 30 minutes at room temperature. The FAAH reaction is initiated by the addition of 25 uL of 40 uM AMC Arachidonoyl Amide in FAAH reaction buffer, yielding a final reaction human FAAH preparation concentration of 0.05 mg/ml and AMC-Arachidonoyl substrate concentration of 20 uM, reaction volume 50 uL. The reaction is allowed to proceed for 4 hours at room temperature. […] The microtiter plate in read in the envision plate reader.
Compound `OB(O)c1ccc(Cl)cc1` [Compound I-82] had a Ki of 10 to 1000 nM.

The experiment is the same for the next values; noted with them: Table 1, human FAAH (no asterisk); read-out: Activity (Ki).
For `OB(O)c1ccc(Cl)s1` [Compound I-37], the Ki is 10 to 1000 nM.

Consider `OB(O)c1ccc(-c2ccc(B(O)O)cc2)cc1` [Compound I-198], for which the Ki is 10 to 100 nM.

As for `OB(O)c1c(F)c(F)cc(F)c1F` [Compound I-55], the Ki was above 1000 nM.

On to `OB(O)c1cc(C(F)(F)F)cc(C(F)(F)F)c1` [Compound I-63], for which the Ki was above 1000 nM.

Consider `O=C(NCc1ccccc1)c1ccc(B(O)O)cc1` [Compound I-164], for which the Ki was below 10 nM.

For `OB(O)c1cccc2cnccc12` [Compound I-41], the Ki is above 1000 nM.

For the compound `CCCc1ccc(B(O)O)cc1` [Compound I-58], the Ki is 10 to 100 nM.

For the compound `OB(O)c1cccc2ncccc12` [Compound I-113], the Ki lay in the range of 10 to 1000 nM.

For the compound `O=Cc1ccc(-c2ccccc2)c(F)c1` [Compound I-136], the inhibitory constant (Ki) was above 1000 nM.

With `OB(O)c1cccs1` [Compound I-40], the Ki is above 1000 nM.

Consider `OB(O)c1cccc2c1oc1ccccc12` [Compound I-4], for which the Ki fell in the range of 10 to 1000 nM.

Consider `OB(O)c1cc(OC(F)(F)F)ccc1F` [Compound I-27], for which the Ki was in the range of 10 to 100 nM.

Turning to `CCCCOc1ccc(B(O)O)cc1Cl` [Compound I-38], the Ki was below 10 nM.

Regarding `O=C(c1ccc(Oc2ccccc2)cc1)C(F)(F)F` [Compound I-132], the Ki was above 1000 nM.

`CCOc1cc(B(O)O)cc(C(F)(F)F)c1` [Compound I-19]: the Ki is above 1000 nM.

Regarding `CC(C)Oc1c(Br)cc(F)cc1B(O)O` [Compound I-7], the Ki was above 1000 nM.

As to `CC1(C)OB(c2ccc(/C=C\c3ccccc3)cc2)OC1(C)C` [Compound I-126], the Ki is above 1000 nM.

`CCOc1cc(F)cc(B(O)O)c1` [Compound I-16]: the Ki fell in the range of 10 to 1000 nM.

Take `OB(O)c1cc(I)ccc1F` [Compound I-1]: the Ki was 10 to 1000 nM.

As for `OB(O)c1ccc(C(F)(F)F)cc1` [Compound I-86], the inhibitory constant (Ki) was 10 to 100 nM.

As to `OB(O)c1ccco1` [Compound I-93], the Ki is above 1000 nM.

`CC(=O)c1cccc(B(O)O)c1` [Compound I-42]: the Ki lay within 10 to 1000 nM.

In the case of `OB(O)c1ccc(OCc2ccccc2)cc1F` [Compound I-146], the Ki is below 10 nM.

On to `OB(O)c1ccccc1OCc1ccccc1` [Compound I-182], for which the Ki was above 1000 nM.

As to `OB(O)c1ccc(-c2ccccc2)cc1F` [Compound I-185], the Ki is below 10 nM.

Still in this experiment, the particulars now being: Table 2, human FAAH (no asterisk); read-out: Activity (Ki).
For the compound `OB(O)c1ccc(-c2nc3ccccc3[nH]2)cc1` [II-64], the Ki was above 1000 nM.

Take `OB(O)c1ccc(COC2CCc3ccccc32)cc1` (stereo not drawn) [II-124]: the Ki was below 10 nM.

As for `OB(O)c1ccc(-c2ccc(F)c(F)c2)cc1F` [II-2], the inhibitory constant (Ki) was below 10 nM.

Turning to `CC(C)(C)OC(=O)Nc1ccc(CCOc2ccc(B(O)O)c(F)c2)cc1` [II-39], the Ki was in the range of 10 to 100 nM.

`Cc1cc(NCc2ccc(B3OC(C)(C)C(C)(C)O3)cc2)ccc1F` [II-187]: the Ki lay in the range of 10 to 100 nM.

With `Cc1ccc(Oc2ccc(B(O)O)c(F)c2)cc1Cl` [II-211], the Ki was below 10 nM.

Consider `O=C(c1ccc(B(O)O)cc1)N(Cc1ccccc1)c1ccccc1` [II-155], for which the Ki is 10 to 100 nM.

As to `OB(O)c1cccc(OCCc2ccccc2)c1` [II-113], the Ki lay within 10 to 100 nM.

Regarding `OB(O)c1cccc(Oc2ccccc2)c1` [II-114], the Ki was below 10 nM.

For the compound `[O-][S+](Cc1ccccc1)c1ccc(B(O)O)cc1` (stereo not drawn) [II-233], the Ki lay in the range of 10 to 100 nM.

With `O=C(CCc1ccccc1)c1ccc(B(O)O)c(F)c1` [II-44], the Ki is below 10 nM.

On to `NC(=O)c1ccc(-c2cccc(B(O)O)c2)cc1` [II-304], for which the Ki is above 1000 nM.

As for `CC1(C)OB(c2ccc(OCc3ccccn3)cc2F)OC1(C)C` [II-176], the Ki is below 10 nM.

Turning to `OB(O)c1ccc(Oc2ccc(F)c(F)c2)cc1F` [II-210], the Ki was below 10 nM.

In the case of `OB(O)c1ccc(Oc2ccc(Cl)c(Cl)c2)cc1` [II-259], the Ki was below 10 nM.

For the compound `COc1ccc(Oc2cccc(Oc3ccc(B(O)O)cc3)c2)cc1` [II-193], the Ki was below 10 nM.

`O=[N+]([O-])c1cccc(CCOc2ccc(B(O)O)c(F)c2)c1` [II-40]: the Ki was above 1000 nM.

With `OB(O)c1ccc(OCCc2ccccn2)cc1F` [II-6], the Ki was below 10 nM.

On to `OB(O)c1ccc(CN2CCc3ccccc32)cc1F` [II-91], for which the Ki was below 10 nM.

Turning to `O=C1C[N+]2(Cc3ccccc3)CC(=O)O[B-]2(c2ccc(-c3cccc(F)c3)cc2F)O1` (stereo not drawn) [II-5], the Ki was below 10 nM.

Consider `CC(C)Oc1cccc(Oc2ccc(B(O)O)cc2)c1` [II-245], for which the Ki is below 10 nM.

For `OB(O)c1ccc(-c2nnc(-c3ccco3)o2)cc1` [II-7], the Ki is below 10 nM.

Regarding `OB(O)c1ccc(SCc2ccccc2)cc1` [II-234], the Ki was below 10 nM.

Turning to `C[C@H](NC(=O)c1ccc(B(O)O)cc1)c1ccccc1` [II-172], the Ki lay in the range of 10 to 100 nM.

`OB(O)c1ccc(CN2CCCc3ccccc32)cc1` [II-143]: the Ki was below 10 nM.

In the case of `OB(O)c1ccc(OCCC2CCCCC2)cc1F` [II-92], the Ki is below 10 nM.

For `CCO/N=C(\c1ccccc1)c1ccc(B(O)O)cc1` [II-116], the Ki was 10 to 100 nM.

As to `OB(O)c1ccc(-c2ccccc2F)cc1F` [II-305], the Ki is below 10 nM.

Take `COc1ccc(Oc2ccc(B(O)O)cc2)cc1OC` [II-262]: the Ki was below 10 nM.

With `COc1c(C)cc(Oc2ccc(B(O)O)cc2)cc1C` [II-239], the inhibition constant Ki is 10 to 100 nM.

In the case of `c1ccc(-c2ccc(B3CCCO3)cc2)cc1` [II-184], the Ki fell in the range of 10 to 100 nM.

For `OB(O)c1ccc(OCc2ccncc2)cc1F` [II-177], the Ki lay in the range of 10 to 100 nM.

In the case of `OB(O)c1ccc(OCCCc2ccccc2)cc1` [II-169], the Ki is below 10 nM.

`Cc1cc(COc2ccc(B(O)O)cc2F)ccc1F` [II-265]: the Ki was below 10 nM.

Consider `CN(C)c1cccc(Oc2ccc(B(O)O)cc2F)c1` [II-205], for which the Ki was below 10 nM.

In the case of `CN(C)C(=O)c1ccc(Oc2ccc(B(O)O)cc2)cc1` [II-227], the Ki lay in the range of 10 to 100 nM.

With `O=C(Nc1ccc(B(O)O)cc1)c1ccccc1` [II-249], the Ki was in the range of 10 to 1000 nM.

For the compound `CN(C)c1cc(Oc2ccc(B(O)O)cc2)cc(Oc2cccc3ccccc23)c1` [II-173], the Ki was above 1000 nM.

`OB(O)c1ccc(COCc2cccc(C(F)(F)F)c2)cc1F` [II-72]: the Ki is below 10 nM.

In the case of `O=C1c2ccccc2C(=O)N1Cc1ccc(B(O)O)cc1` [II-14], the Ki was in the range of 10 to 100 nM.

Turning to `OB(O)c1ccc(COC2CCCc3ccccc32)cc1` (stereo not drawn) [II-123], the Ki is 10 to 100 nM.

`COc1ccc(Oc2cc(Oc3ccc(B(O)O)cc3)cc(N(C)C)c2)cc1` [II-192]: the Ki was in the range of 10 to 100 nM.

With `COC(=O)c1ccc(Oc2ccc(B(O)O)cc2)cc1` [II-284], the Ki is below 10 nM.

`O=C1c2ccc(B(O)O)cc2C(=O)N1c1ccccc1` [II-144]: the Ki is 10 to 100 nM.

For `CN(C)C(=O)c1cccc(Oc2ccc(B(O)O)cc2)c1` [II-228], the Ki lay in the range of 10 to 100 nM.

For `O=C(CCc1ccccc1)c1ccc(B(O)O)cc1` [II-9], the Ki is below 10 nM.

As for `O=S(=O)(Cc1ccccc1)c1ccc(B(O)O)cc1` [II-222], the Ki is above 1000 nM.

As to `CC(C)(C)OC(=O)Nc1ccc(Oc2ccc(B(O)O)cc2)cc1` [II-288], the Ki lay in the range of 10 to 100 nM.

In the case of `CN(C)c1cccc(Oc2ccc(B(O)O)c(F)c2)c1` [II-201], the Ki was 10 to 100 nM.

With `Cc1cc(Oc2ccc(B(O)O)c(F)c2)ccc1Cl` [II-213], the Ki is below 10 nM.

Consider `COc1cccc(Oc2ccc(B(O)O)cc2)c1` [II-279], for which the Ki was below 10 nM.

Consider `OB(O)c1ccc(OCCc2ccccc2)cc1F` [II-8], for which the Ki was below 10 nM.
